Assays:
[1] = 85 kPa, Liquid; for viscosity: Concentric cylinders viscometry; for mass density: Vibrating tube method
[2] = xn = mol fraction of the nth substance listed; conditions: 85 kPa, Liquid; for viscosity: Concentric cylinders viscometry; for mass density: Vibrating tube method

NCCCO [3-amino-1-propanol]
[1]
Conditions	mass density [kg/m3]	viscosity [mPa·s]
293.15 K	987.8	37.33
298.15 K	984.3	28.59
303.15 K	980.3	22.31
308.15 K	976.2	17.67
313.15 K	972.3	14.21
318.15 K	968.5	11.58
323.15 K	964.9	9.546

CCC(C)O (stereo not drawn) [butan-2-ol]
[1]
Conditions	mass density [kg/m3]	viscosity [mPa·s]
293.15 K	806.2	3.743
298.15 K	802	3.101
303.15 K	797.9	2.579
308.15 K	793.6	2.162
313.15 K	789.2	1.828
318.15 K	784.7	1.559
323.15 K	780.2	1.318

CCC(C)O (stereo not drawn) [butan-2-ol] + NCCCO
[2], x1 = 1
Conditions	mass density [kg/m3]	viscosity [mPa·s]
293.15 K	806.2	3.743
298.15 K	802	3.101
303.15 K	797.9	2.579
308.15 K	793.6	2.162
313.15 K	789.2	1.828
318.15 K	784.7	1.559
323.15 K	780.2	1.318

CCCO [propan-1-ol]
[1]
Conditions	mass density [kg/m3]	viscosity [mPa·s]
293.15 K	803.5	2.215
298.15 K	799.4	1.97
303.15 K	795.4	1.752
308.15 K	791.3	1.563
313.15 K	787.2	1.399
318.15 K	783.1	1.255
323.15 K	778.9	1.129

CCCO [propan-1-ol] + CCC(C)O
[2], x2 = 0
Conditions	mass density [kg/m3]	viscosity [mPa·s]
293.15 K	803.5	2.215
298.15 K	799.4	1.97
303.15 K	795.4	1.752
308.15 K	791.3	1.563
313.15 K	787.2	1.399
318.15 K	783.1	1.255
323.15 K	778.9	1.129

CC(C)O [propan-2-ol]
[1]
Conditions	mass density [kg/m3]	viscosity [mPa·s]
293.15 K	784.9	2.429
298.15 K	780.7	2.095
303.15 K	776.4	1.808
308.15 K	772.1	1.567
313.15 K	767.6	1.366
318.15 K	763.1	1.195
323.15 K	758.5	1.052

CC(C)O [propan-2-ol] + CCC(C)O
[2], x2 = 0
Conditions	mass density [kg/m3]	viscosity [mPa·s]
293.15 K	784.9	2.429
298.15 K	780.7	2.095
303.15 K	776.4	1.808
308.15 K	772.1	1.567
313.15 K	767.6	1.366
318.15 K	763.1	1.195
323.15 K	758.5	1.052
